Test results reported in PMC8667043, “First-in-Class Inhibitors of the Ribosomal Oxygenase MINA53” (Journal of Medicinal Chemistry, 2021).

What was measured:
[1] = test system: KDM6; assay: Immunofluorescence of histone methyl mark H3K27me3 in U-87MG cells; assay type: cell-based, human; conditions: 50 μM, 48 h
Method: (§1) For immunofluorescence (IF) analysis, 50 × 10^4 U-87MG cells were grown on sterile coverslips. Twenty-four hours after plating, the cells were treated with the different compounds (IOX-1 at 100 μM, GSK-J4 at 10 μM, CPI-455 at 25 μM, and both MINA53 inhibitors 9 and 10 at 50 μM) for 48 h. IF staining for different trimethylated lysine residues of histone H3 ([…]) were carried out on PFA-fixed cells blocked with 20% goat serum in PBS (1 h, RT) and incubated overnight at 4 °C with primary rabbit polyclonal antibodies against H3K4me3 (Cell Signaling, C42D8, 1:400), H3K9me3 (Cell Signaling, D4W1U, 1:400), and H3K27me3 (Cell Signaling, C36B11, 1:400). Primary antibodies were detected using rabbit anti-IgG secondary antibodies conjugated with either Cy3 (Jackson Immunoresearch 711-165-152). DNA was stained using 0.05 μg/mL 4′,6-diamidino-2-phenylindole (DAPI), and after washing, the coverslips were mounted in Vectashield mounting media. […]
(§2) For quantification of fluorescence intensity signals, images of untreated or treated cells were analyzed and processed using open-source Cell Profiler 4.1.3 image analysis software (https://cellprofiler.org/) to measure fluorescence-integrated intensity values for antibody-binding relating to individual cells. […]

[2] = target: T1, HA-tagged NO66 (Homo sapiens, UniProt Q9H6W3); assay: Substrate trapping by anti-HA immunoprecipitation (RPL8); assay type: cell-based; conditions: HEK293T cells; 100 μM, 18 h
T1 construct: expressed in transfected cells; host or cells: HEK293T (transient, pEF6 vector)
Method: Proteins were transferred onto nitrocellulose or PVDF membranes and incubated with rabbit γ-H2AX (#9718, Cell Signaling Technologies, MA) anti-GAPDH (Sc47724, Santa Cruz Biotechnology, Santa Cruz, CA), rabbit anti-RPL27A (Abcam, ab74731), goat anti-RPL8 (Abcam, ab63941), horseradish peroxidase (HRP)-conjugated anti-HA (Roche, 12013819001), and HRP-conjugated anti-β-actin (Abcam, ab-49900).
For immunoprecipitation, the cells were harvested on ice and lysed by rotation for 1 h at 4 °C in JIES buffer. The cell debris was subsequently pelleted by centrifugation (10 min at 21 910g at 4 °C), and the supernatant was incubated overnight at 4 °C with Pierce anti-HA agarose beads (Thermo Scientific, 26181). The next day, the beads were washed 6 times with JIES buffer before the immunoprecipitates were eluted for 15 min at 1400 rpm at room temperature using 1 mg/mL HA peptide (Thermo Scientific, 26184) dissolved in JIES buffer. The eluted samples were then prepared in 1× Laemmli loading buffer (6x: 125 mM Tris-HCl [pH 6.8], 6% (w/v) SDS, 50% (v/v) glycerol, 225 mM dithiothreitol (DTT), and 0.1% (w/v) bromophenol blue) and boiled for 5 min for detection by western blot.
Plasmid DNA transfections were performed using a FuGENE 6 transfection reagent (Promega, E2691). […]

[3] = test system: KDM5; assay: Immunofluorescence of histone methyl mark H3K4me3 in U-87MG cells; assay type: cell-based, human; conditions: 50 μM, 48 h
Method: as §1, §2

[4] = test system: KDM4; assay: Immunofluorescence of histone methyl mark H3K9me3 in U-87MG cells; assay type: cell-based, human; conditions: 50 μM, 48 h
Method: as §1, §2

T1 sequence (Q9H6W3 whole entry): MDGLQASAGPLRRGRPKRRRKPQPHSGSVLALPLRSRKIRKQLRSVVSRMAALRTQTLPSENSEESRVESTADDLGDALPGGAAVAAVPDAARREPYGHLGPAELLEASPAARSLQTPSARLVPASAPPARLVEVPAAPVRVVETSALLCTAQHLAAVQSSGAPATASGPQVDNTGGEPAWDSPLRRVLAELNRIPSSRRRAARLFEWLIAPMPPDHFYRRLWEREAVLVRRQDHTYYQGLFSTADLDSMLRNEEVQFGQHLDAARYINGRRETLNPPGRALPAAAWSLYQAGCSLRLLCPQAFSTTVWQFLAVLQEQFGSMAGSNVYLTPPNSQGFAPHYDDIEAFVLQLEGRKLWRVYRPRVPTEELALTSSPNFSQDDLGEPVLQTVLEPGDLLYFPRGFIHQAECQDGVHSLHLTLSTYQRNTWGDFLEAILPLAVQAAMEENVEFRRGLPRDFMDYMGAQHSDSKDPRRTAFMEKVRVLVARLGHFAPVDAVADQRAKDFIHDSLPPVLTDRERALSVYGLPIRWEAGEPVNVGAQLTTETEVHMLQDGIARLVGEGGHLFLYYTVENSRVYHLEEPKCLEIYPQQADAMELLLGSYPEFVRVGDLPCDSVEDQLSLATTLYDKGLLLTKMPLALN

## O=C(O)c1cnc(SCCc2ccccc2)[nH]c1=O [compound 9, 2-(Phenethylthio)-3,4-dihydro-4-oxopyrimidine-5-carboxylic Acid]
[1]
  level of histone methyl mark H3K27me3 (KDM6 selectivity): did not observe any evidence for an increase
[2]
  trapping of RPL8 with HA-tagged NO66: did not observe evidence
[3]
  level of histone methyl mark H3K4me3 (KDM5 selectivity): did not observe any evidence for an increase
[4]
  level of histone methyl mark H3K9me3 (KDM4 selectivity): did not observe any evidence for an increase

## O=C(O)c1cnc(SCCCc2ccccc2)[nH]c1=O [compound 10, 2-((3-Phenylpropyl)thio)-3,4-dihydro-4-oxopyrimidine-5-carboxylic Acid]
[1]
  level of histone methyl mark H3K27me3 (KDM6 selectivity): did not observe any evidence for an increase
[2]
  trapping of RPL8 with HA-tagged NO66: did not observe evidence
[3]
  level of histone methyl mark H3K4me3 (KDM5 selectivity): did not observe any evidence for an increase
[4]
  level of histone methyl mark H3K9me3 (KDM4 selectivity): did not observe any evidence for an increase
